According to patent EP3026118A1, “Enzymatic process for producing 3-butenal and 3-buten-1-ol” (LANXESS Deutschland GmbH, priority 2014, dated 2016):

Target: T1, Acetaldehyd-Dehydrogenase PS-DmpF (Pseudomonas sp., UniProt Q52060)
T1 construct: made in house; host or cells: E. coli BL21 (DE3), vector pET-21a(+)
T1 sequence (Q52060 1-312): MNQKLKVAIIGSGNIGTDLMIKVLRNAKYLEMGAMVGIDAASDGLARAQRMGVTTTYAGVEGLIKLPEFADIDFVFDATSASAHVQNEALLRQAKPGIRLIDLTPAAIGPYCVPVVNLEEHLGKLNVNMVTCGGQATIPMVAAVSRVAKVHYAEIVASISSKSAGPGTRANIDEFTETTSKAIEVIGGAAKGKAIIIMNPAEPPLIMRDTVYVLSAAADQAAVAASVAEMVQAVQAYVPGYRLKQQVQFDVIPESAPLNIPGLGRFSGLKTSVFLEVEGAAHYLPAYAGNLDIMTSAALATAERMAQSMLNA
Assay: photometric test of inhibition of PS-DmpF by Crotonyl-CoA in mixtures with Butyryl-CoA
Assay type: biochemical
Conditions: Butyryl-CoA and Crotonyl-CoA mixed in different ratios, Figur 4
Source text: Im Rahmen der Photometertests wurde festgestellt, dass die Acetaldehyd-Dehydrogenase DmpF aus Pseudomonas sp. keine Aktivität gegenüber Crotonyl-CoA zeigte. Daher wurde untersucht, ob Crotonyl-CoA kein Substrat für dieses Enzym darstellt oder eine inhibitorische Wirkung auf das Enzym aufweist. Dazu wurden Butyryl-CoA, welches von der Acetaldehyd-Dehydrogenase umgesetzt wird, und Crotonyl-CoA in unterschiedlichen Verhältnissen gemischt und die Aktivität der PS-DmpF gegen diese Substratmischungen untersucht (Figur 4). Die in Figur 4 zusammengefassten Ergebnisse zeigen, dass die Aktivität der PS-DmpF abnahm, je mehr Crotonyl-CoA im Ansatz enthalten ist. Dies bedeutet, dass Crotonyl-CoA inhibierend auf die Acetaldehyd-Dehydrogenase wirkt.

**Q.** For `C/C=C/C(=O)SCCNC(=O)CCNC(=O)[C@H](O)C(C)(C)COP(=O)(O)OP(=O)(O)OC[C@H]1O[C@@H](n2cnc3c(N)ncnc32)[C@H](O)[C@@H]1OP(=O)(O)O` [Crotonyl-CoA], which “inhibitorische Wirkung auf das Enzym” value is on record?
**A.** inhibierend
